Measured values from patent EP2052721A1, “Use of carnosol for cartilage repair” (DSM IP Assets B.V., priority 2007, dated 2009).
“Also recorded” adds a separate entry of the source. Like-named read-outs stand apart in the source and are kept apart here.

How the values were obtained:
Aggrecan = test: Anabolic gene expression in normal human primary chondrocytes, quantitative real-time PCR (aggrecan); type: cell-based; details: carnosol at 1 µmol/L; for activity at 1 µM: Chondrocyte, normal human chondrocytes (knee), differentiation medium
Experimental: (§1) Influence of carnosol on the expression of genes involved in the build-up and break-down of cartilage. Carnosol of >= 95% purity prepared as disclosed in example 1 was used.
(§2) The effect of carnosol on the expression of human collagen, aggrecan and MMP genes was measured in vitro in normal human chondrocytes (derived from knee). Control experiments without carnosol were done concomitantly to compare the expression of these genes or proteins to that in un-stimulated cells. The effect of carnosol (at 1 µmol/L) on the expression of anabolic genes (see Table B) was measured in normal human chondrocytes obtained from the knee of healthy donors (HNAC-kn, Cambrex, #CC2250). These primary chondrocytes were passaged in vitro not more than 4 times, before being used for experiments. Cells were cultured in differentiation medium (Cambrex, #CC.3225) for 5 - 10 days. Total RNA was extracted from cultured cells and reverse-transcribed; expression levels of distinct genes were determined by quantitative real-time PCR as detailed by Richard et al. Mol. Nutr. Food Res. 49, 431-442, (2005).
(§3) Effect of carnosol on anabolic gene expression in normal human primary chondrocytes Numbers indicate the level of gene expression (in % of control-treated cells)

Collagen I = test: Anabolic gene expression in normal human primary chondrocytes, quantitative real-time PCR (collagen I); type: cell-based; details: carnosol at 1 µmol/L; for activity at 1 µM: Chondrocyte, normal human chondrocytes (knee), differentiation medium
Experimental: as §1, §2, §3

Collagen II [1] = test: Anabolic gene expression in normal human primary chondrocytes, quantitative real-time PCR (collagen II); type: cell-based; details: carnosol at 1 µmol/L; for activity at 1 µM: Chondrocyte, normal human chondrocytes (knee), differentiation medium
Experimental: as §1, §2, §3

SOX-5 = test: Anabolic gene expression in normal human primary chondrocytes, quantitative real-time PCR (SOX-5); type: cell-based; details: carnosol at 1 µmol/L; for activity at 1 µM: Chondrocyte, normal human chondrocytes (knee), differentiation medium
Experimental: as §1, §2, §3

SOX-9 = test: Anabolic gene expression in normal human primary chondrocytes, quantitative real-time PCR (SOX-9); type: cell-based; details: carnosol at 1 µmol/L
Experimental: as §1, §2, §3

Collagen II [2] = test: Cellular collagen II production in chondrocytes, ELISA; type: cell-based, human; details: 20 µmol/L carnosol; for Effect of carnosol on protein expression: 10 days of culture, collagen II, result in words
Experimental: The increased build-up of the ECM has been directly shown by measuring the production of collagen II. To this aim, chondrocytes were cultured in differentiation medium containing 20 µmol/L carnosol for 10 days. Cellular collagen II was then quantified by enzyme linked immunosorbent assay (ELISA). […]

[3] = normal human chondrocytes, result in words

Q: For `CC(C)c1cc2c(c(O)c1O)[C@@]13CCCC(C)(C)[C@@H]1C[C@@H]2OC3=O` [Carnosol, 2H-9,4a-(Epoxymethano)phenanthren-12-one], which activity at 1 µM (Aggrecan; 120 h, 5 days culture, read-out: level of gene expression, Aggrecan, 5 days culture) is on record?
A: 139%

Q: What about the activity at 1 µM (Aggrecan; 240 h, 10 days culture, read-out: level of gene expression, Aggrecan, 10 days culture) of the same compound?
A: 97%

Q: What about the “effect of carnosol on gene expression, Aggrecan” value (Aggrecan; [3]) of the same compound?
A: substantially increased

Q: What about the activity at 1 µM (Collagen I; 120 h, 5 days culture, read-out: level of gene expression, Collagen I, 5 days culture) of the same compound?
A: 207%

Q: And the activity at 1 µM (Collagen I; 240 h, 10 days culture, read-out: level of gene expression, Collagen I, 10 days culture)?
A: 98%

Q: What about the “effect of carnosol on gene expression, Collagen I” value (Collagen I; [3]) of the same compound?
A: Increased

Q: And the activity at 1 µM (Collagen II [1]; 120 h, 5 days culture, read-out: level of gene expression, Collagen II, 5 days culture)?
A: 128%

Q: And the activity at 1 µM (Collagen II [1]; 240 h, 10 days culture, read-out: level of gene expression, Collagen II, 10 days culture)?
A: 189%

Q: What about the “effect of carnosol on gene expression, Collagen II” value (Collagen II [1]; [3]) of the same compound?
A: substantially increased

Q: What about the activity at 1 µM (SOX-5; 120 h, 5 days culture, read-out: level of gene expression, SOX-5, 5 days culture) of the same compound?
A: 85%

Q: What about the activity at 1 µM (SOX-5; 240 h, 10 days culture, read-out: level of gene expression, SOX-5, 10 days culture) of the same compound?
A: 126%

Q: What about the “effect of carnosol on gene expression, SOX-5” value (SOX-5; [3]) of the same compound?
A: enhanced; also recorded: Increased

Q: What about the mrna remaining at 1 µM (SOX-9; Chondrocyte, 120 h, normal human chondrocytes (knee), differentiation medium, 5 days culture, read-out: level of gene expression, SOX-9, 5 days culture) of the same compound?
A: 112%

Q: And the SOX-9 gene expression, % of control at 1 µM (SOX-9; Chondrocyte, 240 h, normal human chondrocytes (knee), differentiation medium, 10 days culture, read-out: level of gene expression, SOX-9, 10 days culture)?
A: 93%

Q: And the “effect of carnosol on gene expression, SOX-9” value (SOX-9; [3])?
A: enhanced; also recorded: Increased

Q: What about the “Effect of carnosol on protein expression” value (Collagen II [2]) of the same compound?
A: Increased

Q: What about the “Effect of carnosol on protein expression” value (Collagen II [2]; listed as carnosol) of the same compound?
A: significantly increased

Q: And the activity at 20 µM (Collagen II [2]; Homo sapiens, Chondrocyte, 240 h, 10 days of culture in differentiation medium, cellular collagen II by ELISA, vehicle = 100)?
A: 129%
